Laboratory results taken from ChEMBL document CHEMBL1201862, “PubChem BioAssay data set” (2004).
The source made the active and inactive calls.

Legend:
Cysteine protease ATG4B = target: T1, Cysteine protease ATG4B (Homo sapiens, UniProt Q9Y4P1); experiment: autophagin-1 cysteine protease inhibition – biochemical, fluorescence, set 2, dose response (AID 588584); assay type: functional
T1 sequence (Q9Y4P1 whole entry): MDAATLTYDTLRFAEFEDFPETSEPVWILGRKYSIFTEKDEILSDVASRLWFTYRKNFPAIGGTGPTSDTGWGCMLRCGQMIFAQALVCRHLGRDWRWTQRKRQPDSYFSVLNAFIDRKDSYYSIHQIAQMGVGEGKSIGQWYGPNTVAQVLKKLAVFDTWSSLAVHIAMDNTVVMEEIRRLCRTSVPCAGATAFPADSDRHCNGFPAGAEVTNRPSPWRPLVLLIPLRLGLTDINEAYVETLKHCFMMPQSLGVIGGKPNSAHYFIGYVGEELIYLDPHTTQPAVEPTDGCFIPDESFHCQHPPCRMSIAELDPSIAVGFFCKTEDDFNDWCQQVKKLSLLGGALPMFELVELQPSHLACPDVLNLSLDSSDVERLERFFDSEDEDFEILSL

Phospholipase A2 = Phospholipase A2 (Homo sapiens, UniProt P04054); experiment: phospholipase A2 activity inhibition – biochemical, set 2, counter-screen for ATG4B inhibitor project, dose response (AID 588586); assay type: functional
Chain of Phospholipase A2 (P04054 whole entry): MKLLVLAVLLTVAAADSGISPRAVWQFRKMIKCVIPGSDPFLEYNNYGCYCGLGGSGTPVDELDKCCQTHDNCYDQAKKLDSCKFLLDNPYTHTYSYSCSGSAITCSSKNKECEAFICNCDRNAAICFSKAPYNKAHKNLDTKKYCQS

Caspase-3 = target: T2, Caspase-3 (Homo sapiens, UniProt P42574); assay type: functional;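 note: Dose-response selectivity test against caspase-3 for candidate inhibitors of sentrin-specific proteases (SENPs)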
T2 sequence (P42574 whole entry): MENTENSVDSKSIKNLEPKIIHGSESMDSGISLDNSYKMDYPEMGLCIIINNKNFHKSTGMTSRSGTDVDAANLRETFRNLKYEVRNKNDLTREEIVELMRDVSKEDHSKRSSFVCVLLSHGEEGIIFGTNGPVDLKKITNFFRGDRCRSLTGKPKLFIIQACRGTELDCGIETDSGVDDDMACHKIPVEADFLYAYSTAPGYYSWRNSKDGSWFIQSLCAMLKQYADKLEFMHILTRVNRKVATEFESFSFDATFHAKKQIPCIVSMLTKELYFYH

[1] = tested on: Streptococcus sp. 'group A'; experiment: Streptococcus pyogenes SK(-)GAS viability under kanamycin – luminescence, BacTiterGlo, confirmation, counter-screen for streptokinase expression inhibitor project, dose response (AID 1900); assay type: functional, organism-based
HeLa = experiment: ATP-based viability loss in HeLa cells – cell-based, CellTiter-Glo luminescence, cherry-pick samples, cytotoxicity control for MITF activator project, dose response (AID 540259); assay type: functional; conditions: Homo sapiens
[2] = target: T3, Sentrin-specific protease 6 (Homo sapiens, UniProt Q9GZR1); assay type: functional;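 note: Luminescence-based dose-response confirmatory assay of SENP6 inhibition, following up an ultra-high-throughput screen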
T3 sequence (Q9GZR1 whole entry): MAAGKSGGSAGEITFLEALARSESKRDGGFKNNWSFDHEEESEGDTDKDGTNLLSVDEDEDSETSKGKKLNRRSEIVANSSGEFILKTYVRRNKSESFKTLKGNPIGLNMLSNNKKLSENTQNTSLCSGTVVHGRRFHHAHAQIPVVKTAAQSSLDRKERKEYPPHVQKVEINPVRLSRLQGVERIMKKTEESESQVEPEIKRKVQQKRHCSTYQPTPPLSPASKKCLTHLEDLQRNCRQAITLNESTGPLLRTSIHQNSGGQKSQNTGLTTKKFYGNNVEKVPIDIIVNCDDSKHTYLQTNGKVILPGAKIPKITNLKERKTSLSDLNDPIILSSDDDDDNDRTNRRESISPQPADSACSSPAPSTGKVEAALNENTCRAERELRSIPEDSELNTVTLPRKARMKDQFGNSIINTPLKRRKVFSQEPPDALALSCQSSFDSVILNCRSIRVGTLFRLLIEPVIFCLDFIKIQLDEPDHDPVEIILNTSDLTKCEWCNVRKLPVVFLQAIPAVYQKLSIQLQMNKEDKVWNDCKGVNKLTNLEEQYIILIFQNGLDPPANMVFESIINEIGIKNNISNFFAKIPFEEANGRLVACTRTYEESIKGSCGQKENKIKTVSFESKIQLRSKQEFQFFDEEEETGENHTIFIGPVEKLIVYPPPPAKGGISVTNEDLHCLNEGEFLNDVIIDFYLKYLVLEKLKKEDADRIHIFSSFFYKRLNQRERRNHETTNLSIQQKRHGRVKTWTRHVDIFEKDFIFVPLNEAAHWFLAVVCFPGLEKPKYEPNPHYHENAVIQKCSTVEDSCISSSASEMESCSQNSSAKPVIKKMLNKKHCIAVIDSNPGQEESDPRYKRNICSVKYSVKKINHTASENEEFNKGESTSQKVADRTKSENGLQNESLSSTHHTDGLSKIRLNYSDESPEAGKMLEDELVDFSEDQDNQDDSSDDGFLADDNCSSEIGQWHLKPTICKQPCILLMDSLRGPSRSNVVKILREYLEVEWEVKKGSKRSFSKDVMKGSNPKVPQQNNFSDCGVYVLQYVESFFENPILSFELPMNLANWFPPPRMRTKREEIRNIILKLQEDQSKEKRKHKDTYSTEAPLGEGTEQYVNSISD

[3] = target: T4, Sentrin-specific protease 8 (Homo sapiens, UniProt Q96LD8); assay type: functional;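 note: luminescence read-out of SENP8 inhibition, dose-response confirmation following an ultra-high-throughput screen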
T4 sequence (Q96LD8 whole entry): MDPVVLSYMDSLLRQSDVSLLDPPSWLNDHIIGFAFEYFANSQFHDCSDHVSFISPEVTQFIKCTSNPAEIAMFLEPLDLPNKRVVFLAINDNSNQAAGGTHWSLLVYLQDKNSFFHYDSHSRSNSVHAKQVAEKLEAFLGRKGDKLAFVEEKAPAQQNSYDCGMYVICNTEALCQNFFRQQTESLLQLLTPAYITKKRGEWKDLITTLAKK

[4] = target: T5, Sentrin-specific protease 7 (Homo sapiens, UniProt Q9BQF6); assay type: functional;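 note: Luminescence-based dose-response confirmation of ultra-high-throughput screening hits, measuring inhibition of SENP7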
T5 sequence (Q9BQF6 whole entry): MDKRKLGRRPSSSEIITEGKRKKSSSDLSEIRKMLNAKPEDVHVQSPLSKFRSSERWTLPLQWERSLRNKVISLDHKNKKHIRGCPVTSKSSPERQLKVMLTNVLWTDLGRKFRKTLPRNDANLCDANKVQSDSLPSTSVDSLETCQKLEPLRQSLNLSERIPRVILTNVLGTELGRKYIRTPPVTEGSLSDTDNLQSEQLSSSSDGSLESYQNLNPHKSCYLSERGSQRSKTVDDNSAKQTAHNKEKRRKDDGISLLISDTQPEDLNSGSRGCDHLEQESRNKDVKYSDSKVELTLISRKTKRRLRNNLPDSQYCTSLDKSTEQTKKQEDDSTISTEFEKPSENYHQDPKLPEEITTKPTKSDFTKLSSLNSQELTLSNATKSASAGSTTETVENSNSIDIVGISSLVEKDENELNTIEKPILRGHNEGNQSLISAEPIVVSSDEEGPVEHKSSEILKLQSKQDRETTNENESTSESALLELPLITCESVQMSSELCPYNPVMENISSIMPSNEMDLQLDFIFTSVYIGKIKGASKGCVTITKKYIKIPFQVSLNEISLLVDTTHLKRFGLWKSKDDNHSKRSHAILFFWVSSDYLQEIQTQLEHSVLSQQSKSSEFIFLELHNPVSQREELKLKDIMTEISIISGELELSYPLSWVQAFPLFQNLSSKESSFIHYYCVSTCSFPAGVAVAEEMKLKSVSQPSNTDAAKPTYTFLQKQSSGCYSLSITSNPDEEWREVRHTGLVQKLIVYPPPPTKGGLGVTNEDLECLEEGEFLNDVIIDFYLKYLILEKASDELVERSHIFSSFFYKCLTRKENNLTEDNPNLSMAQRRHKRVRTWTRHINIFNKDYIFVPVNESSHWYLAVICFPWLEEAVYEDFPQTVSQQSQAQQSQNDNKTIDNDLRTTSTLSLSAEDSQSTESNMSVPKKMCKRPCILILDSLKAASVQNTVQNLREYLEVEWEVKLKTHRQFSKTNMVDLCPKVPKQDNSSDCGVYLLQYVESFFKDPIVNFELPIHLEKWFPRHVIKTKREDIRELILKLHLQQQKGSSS

Streptococcus = experiment: GAS UMAA2166 growth inhibition – luminescence, BacTiterGlo, counter-screen for streptokinase expression inhibitor project, dose response (AID 1915); assay type: functional, organism-based;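 note: potency for reduction of bacterial viability or growth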
Streptokinase A = target: T6, Streptokinase A (Streptococcus pyogenes serotype M1, UniProt P10520); experiment: viability-normalized secreted streptokinase activity reduction – plasminogen activation absorbance, OD405, dose response (AID 1914); assay type: functional, Streptococcus pyogenes M1 GAS;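 note: secreted streptokinase activity via plasminogen activation per viability signal from cell pellet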
T6 sequence (P10520 whole entry): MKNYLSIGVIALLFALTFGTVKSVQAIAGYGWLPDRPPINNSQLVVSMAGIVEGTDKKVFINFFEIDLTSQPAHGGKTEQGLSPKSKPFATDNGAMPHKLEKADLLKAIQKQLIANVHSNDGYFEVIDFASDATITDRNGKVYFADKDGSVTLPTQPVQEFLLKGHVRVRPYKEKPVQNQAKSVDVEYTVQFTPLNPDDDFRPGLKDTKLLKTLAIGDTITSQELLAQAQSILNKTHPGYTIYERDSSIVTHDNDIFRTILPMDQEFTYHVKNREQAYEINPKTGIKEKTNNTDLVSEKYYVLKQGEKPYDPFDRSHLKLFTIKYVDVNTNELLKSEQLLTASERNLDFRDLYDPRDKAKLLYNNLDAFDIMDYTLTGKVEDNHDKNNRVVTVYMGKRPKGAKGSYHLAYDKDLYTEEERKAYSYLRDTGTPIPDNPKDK

[5] = target: T7, Tyrosine-protein phosphatase non-receptor type 22 (Homo sapiens, UniProt Q9Y2R2); assay type: functional
T7 sequence (Q9Y2R2 whole entry): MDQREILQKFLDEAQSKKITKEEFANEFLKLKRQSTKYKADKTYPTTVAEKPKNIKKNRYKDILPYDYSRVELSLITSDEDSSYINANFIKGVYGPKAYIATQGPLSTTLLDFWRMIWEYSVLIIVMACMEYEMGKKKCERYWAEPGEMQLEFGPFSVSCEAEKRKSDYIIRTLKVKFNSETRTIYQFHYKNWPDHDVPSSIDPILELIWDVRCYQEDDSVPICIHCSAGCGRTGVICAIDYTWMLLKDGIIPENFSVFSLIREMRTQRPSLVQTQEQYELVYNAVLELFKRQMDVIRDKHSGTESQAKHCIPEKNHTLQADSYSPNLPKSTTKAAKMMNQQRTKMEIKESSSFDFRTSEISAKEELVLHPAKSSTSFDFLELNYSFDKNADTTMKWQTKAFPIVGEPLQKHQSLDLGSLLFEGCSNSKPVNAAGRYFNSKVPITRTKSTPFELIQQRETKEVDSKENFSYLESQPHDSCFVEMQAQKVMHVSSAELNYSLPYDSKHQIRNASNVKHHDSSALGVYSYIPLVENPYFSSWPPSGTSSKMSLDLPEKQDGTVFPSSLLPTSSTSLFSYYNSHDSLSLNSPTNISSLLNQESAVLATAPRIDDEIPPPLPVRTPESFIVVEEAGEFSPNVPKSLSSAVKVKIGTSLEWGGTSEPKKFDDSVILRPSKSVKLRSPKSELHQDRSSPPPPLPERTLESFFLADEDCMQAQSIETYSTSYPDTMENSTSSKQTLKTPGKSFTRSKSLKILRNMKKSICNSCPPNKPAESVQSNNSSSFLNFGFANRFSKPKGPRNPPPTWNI

[6] = target: T7, Tyrosine-protein phosphatase non-receptor type 22; assay type: functional; remark: listed apart in the source
[7] = target: T8, Tyrosine-protein phosphatase non-receptor type 7 (Homo sapiens, UniProt P35236); assay type: functional
T8 sequence (P35236 whole entry): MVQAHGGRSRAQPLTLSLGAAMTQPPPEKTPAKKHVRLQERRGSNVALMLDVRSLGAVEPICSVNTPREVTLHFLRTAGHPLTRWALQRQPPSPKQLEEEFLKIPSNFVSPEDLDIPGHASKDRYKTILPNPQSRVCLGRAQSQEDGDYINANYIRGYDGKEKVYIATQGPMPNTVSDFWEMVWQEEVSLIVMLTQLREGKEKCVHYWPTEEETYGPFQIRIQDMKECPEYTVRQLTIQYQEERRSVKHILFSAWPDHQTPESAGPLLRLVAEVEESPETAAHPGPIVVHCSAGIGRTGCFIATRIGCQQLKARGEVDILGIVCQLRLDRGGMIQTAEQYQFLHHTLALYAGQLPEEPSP

Mu-type opioid receptor = Mu-type opioid receptor (Homo sapiens, UniProt P35372); experiment: (§1) Counterscreen for agonists of heterodimerization of the mu 1 (OPRM1) and delta 1 (OPRD1) opioid receptors: Luminescence-based cell-based high throughput dose response assay to identify agonists of OPRM1 homodimerization.; assay type: functional
Chain of Mu-type opioid receptor (P35372 whole entry): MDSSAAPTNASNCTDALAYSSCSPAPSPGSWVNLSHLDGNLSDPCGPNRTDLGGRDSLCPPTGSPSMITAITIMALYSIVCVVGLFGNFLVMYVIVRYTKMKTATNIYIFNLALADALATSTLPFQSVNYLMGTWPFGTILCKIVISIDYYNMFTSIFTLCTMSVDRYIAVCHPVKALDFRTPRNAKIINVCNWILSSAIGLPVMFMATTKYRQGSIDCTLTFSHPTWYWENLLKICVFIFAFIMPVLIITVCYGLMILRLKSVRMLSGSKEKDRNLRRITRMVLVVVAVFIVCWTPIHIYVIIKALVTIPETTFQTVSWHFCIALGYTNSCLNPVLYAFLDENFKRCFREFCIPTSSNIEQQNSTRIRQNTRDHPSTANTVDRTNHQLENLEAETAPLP

[8] = target: Delta-type opioid receptor (Homo sapiens, UniProt P41143); experiment: as §1, with “of OPRD1” for “of OPRM1”, “homodimerization. [Related pubchem assays (depositor defined):AID504326, AID504355, AID504692, AID504904, AID504905]” for “homodimerization.”; assay type: functional
Chain of Delta-type opioid receptor (P41143 whole entry): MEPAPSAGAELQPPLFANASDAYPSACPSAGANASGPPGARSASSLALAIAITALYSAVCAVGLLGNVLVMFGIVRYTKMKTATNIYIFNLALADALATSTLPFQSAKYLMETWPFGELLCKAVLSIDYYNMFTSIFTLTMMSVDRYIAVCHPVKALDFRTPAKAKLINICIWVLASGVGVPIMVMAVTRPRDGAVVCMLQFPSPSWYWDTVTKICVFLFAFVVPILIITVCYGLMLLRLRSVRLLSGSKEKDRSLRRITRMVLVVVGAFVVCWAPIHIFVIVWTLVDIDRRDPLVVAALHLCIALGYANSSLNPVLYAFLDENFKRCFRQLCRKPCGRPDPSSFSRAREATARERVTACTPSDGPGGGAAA

[9] = target: 5-hydroxytryptamine receptor 5A (Homo sapiens, UniProt P47898); experiment: Counterscreen for agonists of OPRM1-OPRD1 heterodimerization: luminescence-based cell-based high throughput dose response assay to identify agonists of 5-hydroxytryptamine (serotonin) 5A receptor (HTR5A). [Related pubchem assays (depositor defined):AID504326, AID504355, AID504692, AID504904, AID504905]; assay type: functional
Chain of 5-hydroxytryptamine receptor 5A (P47898 whole entry): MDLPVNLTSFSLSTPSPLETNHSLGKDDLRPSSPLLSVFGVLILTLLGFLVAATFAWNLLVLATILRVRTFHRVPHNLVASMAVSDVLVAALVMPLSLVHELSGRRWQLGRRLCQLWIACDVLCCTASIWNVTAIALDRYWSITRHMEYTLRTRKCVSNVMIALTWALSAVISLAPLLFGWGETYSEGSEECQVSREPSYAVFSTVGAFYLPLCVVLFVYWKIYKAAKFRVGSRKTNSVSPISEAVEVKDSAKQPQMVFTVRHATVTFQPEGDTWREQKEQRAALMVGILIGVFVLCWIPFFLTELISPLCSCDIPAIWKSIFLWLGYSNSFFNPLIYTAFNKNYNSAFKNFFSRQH

With `O=C(C1CCN(c2ncnc3c2nc2n3CCCCC2)CC1)N1CCN(c2cccc(Cl)c2)CC1` the IC50 (Cysteine protease ATG4B) was 22.6 µM (inactive) and the IC50 (Phospholipase A2) was 11.1 µM (active).
With `Cc1csc2nc(CSc3nc4ccccc4o3)c(Br)n12` the IC50 (Caspase-3) was 49.4 µM (active), the EC50 [1] was 45.5 µM (active) and the AC50 (HeLa) was 42.3 µM (active). The IC50 [2] was 12.5 µM (active), the IC50 [3] was > 100 µM (inactive) and the IC50 [4] was 16.2 µM (active). The EC50 (Streptococcus) was > 150 µM (not active) and the EC50 (Streptokinase A) was > 150 µM (not active).
For `CS(=O)(=O)N1CCc2ccc(NC(=O)C3CCCO3)cc2C1` (centres undefined), the IC50 [5] was > 79.4 µM (inactive), the IC50 [6] was > 79.4 µM (inactive) and the IC50 [7] was > 79.4 µM (inactive).
`CN(C)C(CNC(=O)c1cc2ccccc2o1)c1ccco1` (centres undefined) was tested, and the EC50 (Mu-type opioid receptor) was > 92.5 µM (inactive), the EC50 [8] was > 92.5 µM (inactive) and the EC50 [9] was > 92.5 µM (inactive).
In the case of `COC(=O)N/N=C(\C)c1ccc2ccccc2c1OC(F)F`, the IC50 [5] was > 79.4 µM (inactive), the IC50 [6] was > 79.4 µM (inactive) and the IC50 [7] was > 79.4 µM (inactive).
